Source: patent US7163928B2 (CV Therapeutics, Inc., priority 2003, dated 2007)
“And” between values parts separate entries of the source, which are not always exact repeats. Equal values may be shown once.

Biological target: T1, A1 adenosine receptor (Mesocricetus auratus, UniProt A0A1U8BVR4)
T1 construct: A1 adenosine receptor sites on the membranes of DDT cells; endogenous in cells; host or cells: DDT1 cells (hamster vas deferens smooth muscle cell line), membrane preparation
T1 sequence (A0A1U8BVR4 1-326): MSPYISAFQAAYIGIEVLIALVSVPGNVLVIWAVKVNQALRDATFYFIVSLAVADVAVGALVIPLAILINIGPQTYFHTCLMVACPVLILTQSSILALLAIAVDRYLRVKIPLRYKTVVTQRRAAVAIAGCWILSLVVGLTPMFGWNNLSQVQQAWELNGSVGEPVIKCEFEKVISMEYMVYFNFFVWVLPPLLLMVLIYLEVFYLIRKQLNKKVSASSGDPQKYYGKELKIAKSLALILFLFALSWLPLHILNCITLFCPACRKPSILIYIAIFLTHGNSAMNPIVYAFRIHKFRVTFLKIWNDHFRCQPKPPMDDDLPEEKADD
Assay: Competitive binding assay, DDT cell membranes, 3H-CPX
Parameters: species or system hamster
Conditions: 1.5 nM 3H-CPX, 10 μM GTP-γS, 23° C. 90 minutes, read-out: Ki (low)
Method: DDT cells (hamster vas deferens smooth muscle cell line) were grown as monolayers in petri dishes using Dulbecco's Modified Eagle's Medium (DMEM) containing 2.5 μg mL^−1 amphotericin B, 100 U mL^−1 penicillin G, 0.1 mg mL^−1 streptomycin sulfate and 5% fetal bovine serum in a humidified atmosphere of 95% air and 5% CO2. Cells were subcultured twice weekly by dispersion in Hank's Balanced Salt Solution (HBSS) without the divalent cations and containing 1 mM EDTA. The cells were then seeded in growth medium at a density of 1.2×10^5 cells per plate and experiments were performed 4 days later at approximately one day preconfluence.
Attached cells were washed twice with HBSS (2×10 mL), scraped free of the plate with the aid of a rubber policeman in 5 mL of 50 mM Tris-HCl buffer pH 7.4 at 4° C. and the suspension homogenized for 10 s. The suspension was then centrifuged at 27,000×g for 10 min. The pellet was resuspended in homogenization buffer by vortexing and centrifuged as described above. The final pellet was resuspended in 1 vol of 50 mM Tris-HCl buffer pH 7.4 containing 5 mM MgCl2 for A1 adenosine receptor assays. For the [^35S]GTPγS binding assay the final pellet was resuspended in 50 mM Tris-HCl pH 7.4 containing 5 mM MgCl2, 100 mM NaCl and 1 mM dithiothreitol. This membrane suspension was then placed in liquid nitrogen for 10 min, thawed and used for assays. The protein content was determined with a Bradford™ Assay Kit using bovine serum albumin as standard.
Compounds of Formula I were assayed to determine their affinity for the A1 adenosine receptor sites on the membranes of DDT cells. Briefly, 50–70 ug of membrane protein were incubated in a mixture containing 2 U/ml adenosine deaminase, 10 μM GTP-γS in 5 mM HE buffer containing 5 mM MgCl2 in glass tubes Stock solutions of the compounds of the invention were serially diluted (10^−10M to 10^−4M) in HE buffer or HE buffer alone (to determine total binding) and added to the incubation mixture. Finally, tritiated […] (^3H-CPX) was added to a final concentration of 1.5 nM. After incubation at 23° C. 90 minutes, the reaction was stopped by filtration on a Brandel MR24 cell harvester and washing with ice-cold Tris-EDTA buffer (three times, approximate volume 10 ml/wash) over Whatman GF/B filters (presoaked for 1 h in 0.3% polyethylenimine to reduce non-specific binding). Filters were transferred to scintillation vials and 5 ml of Scintisafe (VWR, Brisbane, Calif.) was added. The amount of radioactivity retained on the filters was determined by liquid scintillation spectrometry. Protein determinations were by the method of Bradford (1976. Anal. Biochem. 72:248) using bovine serum albumin as the standard.
OC[C@@H]1C[C@@H](O)[C@H](n2cnc3c(N[C@H]4CC[C@H](O)CC4)ncnc32)O1 showed a Ki of over 5 µM.
For “1-[(3R)-3-({9-[(5S,2R,3R)-3-hydroxy-5-(hydroxymethyl)oxolan-2-yl]purin-6-yl}amino)pyrrolidinyl]-2-methylpropan-1-one [CVT 4614]”, the Ki was over 5 µM.
For “4-{[(3R)-3-({9-[(5S,2R,3R)-3-hydroxy-5-(hydroxymethyl)oxolan-2-yl]purin-6-yl}amino)pyrrolidinyl]carbonyl}benzenecarbonitrile [CVT 4608]”, the Ki was over 5 µM.
Work on OC[C@@H]1C[C@@H](O)[C@H](n2cnc3c(N[C@@H]4CCOC4)ncnc32)O1 [CVT 3454, 2-{6-[((3R)oxolan-3-yl)amino]purin-9-yl}(5S,2R,3R)-5-(hydroxymethyl)oxolan-3-ol] yielded a Ki of 1 µM.
In the case of CC(=O)N1CC[C@@H](Nc2ncnc3c2ncn3[C@@H]2O[C@H](CO)C[C@H]2O)C1 [CVT 4617, (3R)-3-({9-[(5S,2R,3R)-3-hydroxy-5-(hydroxymethyl)oxolan-2-yl]purin-6-yl}amino)-1-acetylpyrrolidine], the Ki is reported as over 5 µM.
In the case of OC[C@@H]1C[C@@H](O)[C@H](n2cnc3c(N[C@@H]4CCCCC4O)ncnc32)O1 (stereo partly drawn) [CVT 4622, 2-{6-[((1R)-2-hydroxycyclohexyl)amino]purin-9-yl}(5S,2R,3R)-5-(hydroxymethyl)oxolan-3-ol], the Ki is reported as 4.44 µM and 2.94 µM.
With OC[C@@H]1C[C@@H](O)[C@H](n2cnc3c(N[C@H]4CCC[C@@H]4O)ncnc32)O1 [CVT 4625, (5S,2R,3R)-2-{6-[((1S,2S)-2-hydroxycyclopentyl)amino]purin-9-yl}-5-(hydroxymethyl)oxolan-3-ol] the Ki was 4.09 µM and 3.69 µM.
With OC[C@@H]1C[C@@H](O)[C@H](n2cnc3c(N[C@@H]4CCCC4O)nc(Cl)nc32)O1 (stereo partly drawn) [CVT 4626, 2-{6-[((1R)-2-hydroxycyclopentyl)amino]-2-chloropurin-9-yl}(5S,2R,3R)-5-(hydroxymethyl)oxolan-3-ol] the Ki was 4.01 µM and 3.5 µM.
Molecule O=S(=O)(c1ccccc1)N1CC[C@@H](Nc2ncnc3c2ncn3[C@@H]2O[C@H](CO)C[C@H]2O)C1 [CVT 4629, (3R)-3-({9-[(5S,2R,3R)-3-hydroxy-5-(hydroxymethyl)oxolan-2-yl]purin-6-yl}amino)-1-(phenylsulfonyl)pyrrolidine] has a Ki of over 5 µM.
In the case of “(3R)-3-({9-[(5S,2R,3R)-3-hydroxy-5-(hydroxymethyl)oxolan-2-yl]purin-6-yl}amino)pyrrolidinyl 2-fluorophenyl ketone [CVT 4606]”, the Ki is reported as 2.84 µM.
Molecule “(3R)-3-({9-[(5S,2R,3R)-3-hydroxy-5-(hydroxymethyl)oxolan-2-yl]purin-6-yl}amino)pyrrolidinyl 2-naphthyl ketone [CVT 4612]” has a Ki of over 5 µM.
In the case of “(3R)-3-({9-[(5S,2R,3R)-3-hydroxy-5-(hydroxymethyl)oxolan-2-yl]purin-6-yl}amino)pyrrolidinyl 3-fluorophenyl ketone [CVT 4613]”, the Ki is reported as over 5 µM.
In the case of “(3R)-3-({9-[(5S,2R,3R)-3-hydroxy-5-(hydroxymethyl)oxolan-2-yl]purin-6-yl}amino)pyrrolidinyl 4-(trifluoromethyl)phenyl ketone [CVT 4610]”, the Ki is reported as over 5 µM.
For “(3R)-3-({9-[(5S,2R,3R)-3-hydroxy-5-(hydroxymethyl)oxolan-2-yl]purin-6-yl}amino)pyrrolidinyl 4-ethylphenyl ketone [CVT 4611]”, the Ki was over 5 µM.
In the case of “(3R)-3-({9-[(5S,2R,3R)-3-hydroxy-5-(hydroxymethyl)oxolan-2-yl]purin-6-yl}amino)pyrrolidinyl 4-fluorophenyl ketone [CVT 4607]”, the Ki is reported as over 5 µM.
Work on “(3R)-3-({9-[(5S,2R,3R)-3-hydroxy-5-(hydroxymethyl)oxolan-2-yl]purin-6-yl}amino)pyrrolidinyl 4-methoxyphenyl ketone [CVT 4609]” yielded a Ki of over 5 µM.
With “(3R)-3-({9-[(5S,2R,3R)-3-hydroxy-5-(hydroxymethyl)oxolan-2-yl]purin-6-yl}amino)pyrrolidinyl naphthyl ketone [CVT 4627]” the Ki was 1.91 µM and 2.56 µM.

System: not given
Assay: not given
Conditions: cited from earlier work
For Nc1ncnc2c1ncn2[C@@H]1O[C@H](CO)[C@@H](O)[C@H]1O [adenosine, Adenosine], the half-life is listed as “less than 10 sec”.
